Experiments:
[1] = 298.15 K, 101.33 kPa, Liquid; for speed of sound: Sing-around technique in a fixed-path interferometer; for mass density: Vibrating tube method
[2] = mn = molality of the nth substance listed, in mol/kg; conditions: 298.15 K, 101 kPa, Liquid; for speed of sound: Sing-around technique in a fixed-path interferometer; for mass density: Vibrating tube method

CCC(=O)N(C)C [N,N-dimethylpropionamide]
[1]
Conditions | mass density [kg/m3] | speed of sound [m/s]
– | 921.16 | 1425.4

CCC(=O)N(C)C [N,N-dimethylpropionamide] + C1CCCCC1
[2]
Conditions | mass density [kg/m3] | speed of sound [m/s]
m1 = 0.05 | 773.91 | 1254.7
m1 = 0.1518 | 774.79 | 1254.7
m1 = 0.2497 | 775.68 | 1254.8
m1 = 0.355 | 776.64 | 1254.9
m1 = 0.4496 | 777.52 | 1255

CCC(=O)N(C)C [N,N-dimethylpropionamide] + CCCCCCC
[2]
Conditions | mass density [kg/m3] | speed of sound [m/s]
m1 = 0.0487 | 680.32 | 1132.3
m1 = 0.1515 | 681.98 | 1133.4
m1 = 0.2686 | 683.9 | 1135.1
m1 = 0.3627 | 685.47 | 1136.2
m1 = 0.4628 | 687.09 | 1137.5

CCC(=O)N(C)C [N,N-dimethylpropionamide] + CCCCO
[2]
Conditions | mass density [kg/m3] | speed of sound [m/s]
m1 = 0.0494 | 806.25 | 1241.7
m1 = 0.1311 | 807.08 | 1243.2
m1 = 0.21 | 807.88 | 1244.6
m1 = 0.2899 | 808.68 | 1246.1
m1 = 0.3702 | 809.48 | 1247.5

CCC(=O)N(C)C [N,N-dimethylpropionamide] + CCCO
[2]
Conditions | mass density [kg/m3] | speed of sound [m/s]
m1 = 0.0515 | 800.16 | 1207.9
m1 = 0.1316 | 801.03 | 1209.6
m1 = 0.2061 | 801.84 | 1211.2
m1 = 0.2845 | 802.68 | 1212.9
m1 = 0.3632 | 803.51 | 1214.5

CCC(=O)N(C)C [N,N-dimethylpropionamide] + CCO
[2]
Conditions | mass density [kg/m3] | speed of sound [m/s]
m1 = 0.0587 | 785.99 | 1146.6
m1 = 0.1486 | 787.09 | 1148.1
m1 = 0.2471 | 788.4 | 1150.7
m1 = 0.3517 | 789.6 | 1153.2
m1 = 0.4456 | 790.79 | 1155.3

CCC(=O)N(C)C [N,N-dimethylpropionamide] + CO
[2]
Conditions | mass density [kg/m3] | speed of sound [m/s]
m1 = 0.0618 | 787.53 | 1105
m1 = 0.1442 | 788.62 | 1107
m1 = 0.2317 | 789.76 | 1109.6
m1 = 0.3264 | 790.9 | 1112
m1 = 0.4233 | 792.14 | 1114.7

CCC(=O)N(C)C [N,N-dimethylpropionamide] + O
[2]
Conditions | mass density [kg/m3] | speed of sound [m/s]
m1 = 0.0588 | 996.85 | 1501.1
m1 = 0.1486 | 996.53 | 1508.1
m1 = 0.2471 | 996.2 | 1515.7
m1 = 0.3518 | 995.95 | 1522
m1 = 0.4457 | 995.72 | 1528.2

CN1CCCC1=O [N-methylpyrrolidone]
[1]
Conditions | mass density [kg/m3] | speed of sound [m/s]
– | 1028.01 | 1545.2

CN1CCCC1=O [N-methylpyrrolidone] + C1CCCCC1
[2]
Conditions | mass density [kg/m3] | speed of sound [m/s]
m1 = 0.0792 | 774.81 | 1256
m1 = 0.1648 | 776.26 | 1256.8
m1 = 0.2385 | 777.5 | 1257.6
m1 = 0.3142 | 778.77 | 1258.3
m1 = 0.3925 | 780.08 | 1258.7

CN1CCCC1=O [N-methylpyrrolidone] + CCCCCCC
[2]
Conditions | mass density [kg/m3] | speed of sound [m/s]
m1 = 0.0859 | 681.45 | 1133.1
m1 = 0.1879 | 683.75 | 1135
m1 = 0.2695 | 685.56 | 1136.4
m1 = 0.3576 | 687.51 | 1137.7
m1 = 0.4488 | 689.49 | 1139.2

CN1CCCC1=O [N-methylpyrrolidone] + CCCCO
[2]
Conditions | mass density [kg/m3] | speed of sound [m/s]
m1 = 0.0846 | 807.27 | 1243
m1 = 0.1506 | 808.43 | 1244.6
m1 = 0.23 | 809.82 | 1245.8
m1 = 0.2953 | 810.94 | 1247.7
m1 = 0.3712 | 812.24 | 1249.6

CN1CCCC1=O [N-methylpyrrolidone] + CCCO
[2]
Conditions | mass density [kg/m3] | speed of sound [m/s]
m1 = 0.0757 | 801.03 | 1209.1
m1 = 0.1611 | 802.58 | 1211.6
m1 = 0.2275 | 803.78 | 1213.4
m1 = 0.3064 | 805.2 | 1215.6
m1 = 0.381 | 806.51 | 1217.6

CN1CCCC1=O [N-methylpyrrolidone] + CCO
[2]
Conditions | mass density [kg/m3] | speed of sound [m/s]
m1 = 0.077 | 786.74 | 1146.8
m1 = 0.1554 | 788.32 | 1149.3
m1 = 0.2349 | 789.86 | 1151.9
m1 = 0.3089 | 791.28 | 1154
m1 = 0.388 | 792.78 | 1156.5

CN1CCCC1=O [N-methylpyrrolidone] + CO
[2]
Conditions | mass density [kg/m3] | speed of sound [m/s]
m1 = 0.0786 | 788.33 | 1106.3
m1 = 0.1588 | 789.97 | 1109
m1 = 0.2275 | 791.35 | 1111.2
m1 = 0.3082 | 792.96 | 1114
m1 = 0.3854 | 794.5 | 1116.6

CN1CCCC1=O [N-methylpyrrolidone] + O
[2]
Conditions | mass density [kg/m3] | speed of sound [m/s]
m1 = 0.0621 | 997.34 | 1500.7
m1 = 0.1225 | 997.63 | 1504.4
m1 = 0.1806 | 997.92 | 1507.8
m1 = 0.2399 | 998.21 | 1511.4
m1 = 0.3036 | 998.54 | 1515.1

CCCCO [butan-1-ol]
[1]
Conditions | mass density [kg/m3] | speed of sound [m/s]
– | 805.72 | 1240.5

C1CCCCC1 [cyclohexane]
[1]
Conditions | mass density [kg/m3] | speed of sound [m/s]
– | 773.82 | 1255

CCO [ethanol]
[1]
Conditions | mass density [kg/m3] | speed of sound [m/s]
– | 785.22 | 1145.2

CCCCCCC [heptane]
[1]
Conditions | mass density [kg/m3] | speed of sound [m/s]
– | 679.51 | 1131.4

CO [methanol]
[1]
Conditions | mass density [kg/m3] | speed of sound [m/s]
– | 786.66 | 1103.4

CCCO [propan-1-ol]
[1]
Conditions | mass density [kg/m3] | speed of sound [m/s]
– | 799.58 | 1206.7

From the NIST ThermoML archive (doi:10.1016/j.tca.2013.09.017)
